In patent publication US6331553A, “Aromatic amine derivatives having NOS inhibiting action” (Chugai Seiyaku Kabushiki Kaisha, priority 1996, dated 2001):
Read-outs that look alike come from different tables or passages of the source.

Experiments:
iNOS [1] = settings: reported in the literature; cited from earlier work
nNOS [2] = biological target: T1, nNOS (Rattus norvegicus, UniProt P29476); experiment: biochemical; parameters: species or system male Sprague Dawley (SD) rats (cerebral cortex); settings: for Selectivity eNOS/nNOS: ratio of IC50 values eNOS/nNOS; for Selectivity iNOS/nNOS: ratio of IC50 values iNOS/nNOS
T1 construct: a soluble cytosolic fraction of the finally obtained supernatant was used as the crude enzyme of nNOS; from tissue; host or cells: rat cerebral cortex, soluble cytosolic fraction (100,000×g supernatant)
Procedure: The crude enzyme of nNOS was prepared by the following procedure. Normal untreated male Sprague Dawley (SD) rats (body weight, 300-400 g) were decapitated; the whole brain was immediately taken out from each animal and the cerebral cortex was separated on ice. Then, 5 volumes of 50 mM Tris-HCl containing 1 mM DTT (pH 7.4) was added and the mixture was homogenized for 3 min and centrifuged at 1,000×g for 10 min. The resulting supernatant was further centrifuged at 100,000×g for 60 min and a soluble cytosolic fraction of the finally obtained supernatant was used as the crude enzyme of nNOS.

iNOS [3] = biological target: T2, iNOS (Rattus norvegicus, UniProt Q06518); experiment: Inhibitory effect on crude iNOS (conversion of L-[3H]arginine to L-[3H]citrulline); type: biochemical, Rats (lungs, LPS treated); settings: for IC50: mean values, duplicate, crude enzyme from lungs of LPS-treated rats, 37° C. 10 min, read-out: Inhibitory action IC50 iNOS; for Selectivity eNOS/iNOS: ratio of IC50 values eNOS/iNOS
T2 construct: a soluble cytosolic fraction of the finally obtained supernatant was used as the crude enzyme of iNOS; from tissue; host or cells: lungs of LPS-treated rats, soluble cytosolic fraction (100,000×g supernatant)
Procedure: (§1) Compounds of the invention were evaluated for their inhibitory effect on the presently known three NOS isoforms.
The crude enzyme of iNOS was prepared by the following procedure. Rats were administered LPS (10 mg/kg) intraperitoneally and, 6 h later, perfused in a transcardiac manner with physiological saline containing 10 U/ml of heparin; thereafter, lungs were taken out. Subsequently, 5 volumes of 50 mM Tris-HCl containing 1 mM DTT (pH 7.4) was added and the mixture was homogenized for 3 min, followed by centrifugation of the homogenate at 1,000×g for 10 min. The resulting supernatant was centrifuged at 100,000×g for 60 min and a soluble cytosolic fraction of the finally obtained supernatant was used as the crude enzyme of iNOS.
(§2) The reaction was started by addition of L-[^3 H] arginine. After incubation at 37° C. for 10 min, the reaction was terminated by addition of 2 ml of 50 mM Tris-HCl (pH 5.5) containing 1 mM EDTA and placing the mixture on ice. The reaction solution was passed through a cation-exchange resin column (Dowex AG50WX-8, Na^+ form, 3.2 ml) to separate the reaction product L-[^3 H] citrulline from the unreacted residual substrate L-[^3 H] arginine. The eluate was combined with another eluate resulting from the passage of a given amount of distilled water through the column and put into a minivial for recovery of L-[^3 H] citrulline. Thereafter, a scintillation fluid was added and the contained radioactivity was measured with a liquid scintillation counter to determine the amount of L-[^3 H] citrulline.
(§3) The activity of nNOS or eNOS was determined by subtracting the activity detected in the absence of CaCl2 and calmodulin from the activity detected in the presence of CaCl2 and calmodulin. The activity of iNOS was detected in the absence of CaCl2 and calmodulin. The protein concentration of each crude enzyme sample was determined with a micro-assay kit of Bio Rad Co. Each Experiment was conducted in a duplicate.
The table also lists the ratios of IC50 values to each other as an index of selectivity.

eNOS = biological target: T3, eNOS (Bos taurus, UniProt P29473); experiment: Inhibitory effect on crude eNOS (conversion of L-[3H]arginine to L-[3H]citrulline); type: biochemical, Cow (pulmonary arterial endothelium cells, CPAE)
T3 construct: the resulting supernatant was used as the crude enzyme of eNOS; endogenous in cells; host or cells: CPAE (cow pulmonary arterial endothelium cells), 1% Triton X-100 extract
T3 sequence (P29473 2-1205): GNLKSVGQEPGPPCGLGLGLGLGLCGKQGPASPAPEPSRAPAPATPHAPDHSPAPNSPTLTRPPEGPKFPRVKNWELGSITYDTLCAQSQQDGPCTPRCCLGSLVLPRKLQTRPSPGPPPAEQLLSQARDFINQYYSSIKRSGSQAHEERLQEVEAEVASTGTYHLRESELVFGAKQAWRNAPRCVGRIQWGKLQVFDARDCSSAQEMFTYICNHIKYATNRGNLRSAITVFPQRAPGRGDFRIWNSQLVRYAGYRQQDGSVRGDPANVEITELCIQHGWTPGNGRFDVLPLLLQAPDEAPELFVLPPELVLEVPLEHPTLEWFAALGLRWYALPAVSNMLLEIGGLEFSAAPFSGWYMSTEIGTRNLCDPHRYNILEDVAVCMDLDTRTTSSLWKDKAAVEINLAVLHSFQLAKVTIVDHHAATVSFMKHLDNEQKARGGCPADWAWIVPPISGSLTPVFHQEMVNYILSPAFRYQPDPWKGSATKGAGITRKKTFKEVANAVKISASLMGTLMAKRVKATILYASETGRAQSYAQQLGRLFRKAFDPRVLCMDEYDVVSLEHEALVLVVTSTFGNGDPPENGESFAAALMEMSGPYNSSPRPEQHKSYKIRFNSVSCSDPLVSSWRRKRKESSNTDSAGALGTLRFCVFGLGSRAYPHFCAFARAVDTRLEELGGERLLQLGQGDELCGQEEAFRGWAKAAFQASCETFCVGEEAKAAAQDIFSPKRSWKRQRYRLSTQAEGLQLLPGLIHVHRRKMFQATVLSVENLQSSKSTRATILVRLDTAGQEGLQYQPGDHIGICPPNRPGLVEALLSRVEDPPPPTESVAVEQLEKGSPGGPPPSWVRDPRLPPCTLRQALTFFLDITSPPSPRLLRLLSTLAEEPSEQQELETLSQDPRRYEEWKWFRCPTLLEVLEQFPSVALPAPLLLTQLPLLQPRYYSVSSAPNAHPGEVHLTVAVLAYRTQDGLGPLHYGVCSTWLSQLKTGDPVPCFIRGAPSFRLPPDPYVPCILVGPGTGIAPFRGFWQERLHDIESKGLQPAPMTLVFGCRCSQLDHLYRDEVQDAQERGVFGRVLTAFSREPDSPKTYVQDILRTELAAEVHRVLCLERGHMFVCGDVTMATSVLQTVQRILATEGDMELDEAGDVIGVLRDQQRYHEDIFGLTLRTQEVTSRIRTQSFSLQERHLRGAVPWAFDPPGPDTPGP
Procedure: as §1
Crude enzymes of the respective NOS isoforms were prepared by the following procedures (Nagafuji et al., Neuroreport 6, 1541-1545, 1995).
The crude enzyme of eNOS was prepared by the following procedure. Cow pulmonary arterial endothelium cells (CPAE) were cultured in a MEM medium containing 20% FBS. Several days later, the cells were detached from the flask using a 0.25% trypsin solution containing 1 mM EDTA and, after addition of a suitable amount of FBS, centrifuged at 1,000 rpm for 10 min. A suitable amount of Ca- and Mg-free phosphate buffer (pH 7.4) was added to the precipitating cells and they were centrifuged at 1,000 rpm for 10 min. The same step was repeated to wash the cells which, upon addition of 50 mM Tris-HCl (pH 7.4) containing 1% Triton X-100 and 1 mM DTT, were left to stand in ice for 1 h. Subsequently, the mixture was homogenized for 3 min and kept in ice for 30 min with occasional stirring. Finally, the mixture was centrifuged at 100,000×g for 60 min and the resulting supernatant was used as the crude enzyme of eNOS.
The method of measuring NOS activity was basically the same as already reported by the present inventors and consisted of determining quantitatively the conversion of a substrate L-[^3 H]arginine to a reaction product L-[^3 H] citrulline (Nagafuji et al., in Brain Edema IX (Ito et al, eds.) 60, pp. 285-288, 1994; Nagafuji et al., Neuroreport 6, 1541-1545, 1995)
The reaction solution consisted of 100 nM L-[^3 H] arginine, a prepared crude NOS enzyme sample (10-30 μg/ml protein), 1.25 mM CaCl2, 1 mM EDTA, 10 μg/ml calmodulin, 1 mM NADPH, 100 μM tetrahydrobiopterine, 10 μM FAD, 10 μM FMN and 50 mM Tris-HCl (pH 7.4), to which one of the compounds of the invention or one of the control compounds was added.
as §2, §3
Table 81 lists the mean values of IC50 (the concentration necessary to inhibit 50% activity) of all test compounds against each NOS isoform. The table also lists the ratios of IC50 values to each other as an index of selectivity.

nNOS [4] = settings: reported in the literature; cited from earlier work
nNOS [5] = settings: mouse model of focal cerebral ischemia; cited from earlier work
NOS isoform = settings: reported in the literature; cited from earlier work
[6] = mean values, duplicate, crude enzyme from rat cerebral cortex, 37° C. 10 min, read-out: Inhibitory action IC50 nNOS
[7] = mean values, duplicate, crude enzyme from CPAE cells, 37° C. 10 min, read-out: Inhibitory action IC50 eNOS

| SMILES | IC50 (nNOS [2]; [6]) [nM] | Selectivity eNOS/nNOS (nNOS [2]) | IC50 (eNOS; [7]) [nM] | further results |
| --- | --- | --- | --- | --- |
| N=C(N)NN [AG, aminoguanidine] |  |  |  | selectivity for iNOS (iNOS [1]): a certain degree of selectivity for iNOS |
| Cc1ccc([N+](=O)[O-])c(Nc2cccc(CN)c2)n1.Cl [Example 52, 2-(3-aminomethylphenylamino)-6-methyl-3-nitropyridine hydrochloride] | 79.8 | 19 | 1480 |  |
| CCc1ccc([N+](=O)[O-])c(Nc2cccc(CN)c2)n1.Cl [Example 53, 2-(3-aminomethylphenylamino)-6-ethyl-3-nitropyridine hydrochloride] | 86.1 | 77 | 6620 |  |
| CCOc1ccc([N+](=O)[O-])c(Nc2cccc(CN)c2)n1 [Example 57] | 70.8 | 13 | 947 |  |
| CSc1ccc([N+](=O)[O-])c(Nc2cccc(CN)c2)n1 [Example 61] | 126 | 13 | 1610 |  |
| Cc1ccc([N+](=O)[O-])c(Nc2cccc(CN)c2)c1 [Example 151] | 126 | 5 | 679 |  |
| COc1ccc([N+](=O)[O-])c(Nc2ccc(CCN)cc2)n1 [Example 460] | 112 | 11 | 1240 |  |
| Cc1ccnc(Nc2cccc(CN)c2C)c1 [Example 481] | 78.1 | 25 | 1980 |  |
| Cc1ccnc(Nc2ccccc2CCN)c1 [Example 484] |  | 18 |  | IC50 (nNOS [2]): 69.2 nM; IC50 (eNOS): 1260 nM |
| Cc1ccnc(Nc2ccc(CCN)cc2)c1 [Example 489] |  |  |  | IC50 (nNOS [2]): 22.1 nM |
| CCSC(=N)NCCC[C@H](N)C(=O)O [L-EIN, S-ethyl-L-thiocitrulline] |  |  |  | selectivity for nNOS (nNOS [4]): a certain degree of selectivity for nNOS |
| CSC(=N)NCCC[C@H](N)C(=O)O [L-MIN, S-methyl-L-thiocitrulline] |  |  |  | selectivity for nNOS (nNOS [4]): a certain degree of selectivity for nNOS |
| N=C(NCCC[C@H](N)C(=O)O)N[N+](=O)[O-] [L-NA, N^G -nitro-L-arginine, reference compound] |  |  |  | IC50 (iNOS [3]): 3460 nM; percent inhibition of nNOS activity and percent reduction of infarct volume (nNOS [5]): correlate to each other |
| COC(=O)[C@@H](N)CCCNC(=N)N[N+](=O)[O-] [L-NAME, N^G -nitro-L-arginine methyl ester] |  |  |  | highly selective inhibitory effect on a specific NOS isoform (NOS isoform): no existing NOS inhibitors including L-NA and N^G -nitro-L-arginine methyl ester (L-NAME) have a highly selective inhibitory effect on a specific NOS isoform |
| CC(=N)NCCC[C@H](N)C(=O)O [L-NIO, N^G -iminoethyl-L-ornithine] |  |  |  | selectivity for iNOS (iNOS [1]): a certain degree of selectivity for iNOS |

The remaining compounds from weak to strong by IC50 (nNOS [2]; [6]), led by results:

| IC50 (nNOS [2]; [6]) [nM] | Selectivity eNOS/nNOS (nNOS [2]) | IC50 (eNOS; [7]) [nM] | SMILES | further results |
| --- | --- | --- | --- | --- |
| 66.9 | 12 | 802 | Cc1ccnc(Nc2cccc(C(C)(C)N)c2)c1 [Example 479] |  |
| 65.4 | 11 | 711 | CCOc1ccc(Nc2cc(C)ccn2)cc1CN [Example 483] |  |
| 61.6 | 7 | 448 | Cc1ccnc(Nc2cccc(CN)c2)c1 [Example 478] |  |
| 56.3 | 44 | 2480 | CCOc1c(CN)cccc1Nc1nc(OC)ccc1[N+](=O)[O-] [Example 468] |  |
| 54.4 | 53 | 2880 | Cc1ccnc(Nc2cccc(CN)c2Cl)c1 [Example 485] | Selectivity iNOS/nNOS (nNOS [2]): 32; IC50 (iNOS [3]): 1770 nM; Selectivity eNOS/iNOS (iNOS [3]): 1.6 |
| 50.5 | 27 | 1350 | CCc1ccc(Nc2cc(C)ccn2)cc1CN [Example 482] |  |
| 45.8 | 39 | 1770 | Cc1ccnc(Nc2ccc(Cl)c(CN)c2)c1 [Example 491] |  |
| 40 | 25 | 994 | COc1ccc([N+](=O)[O-])c(Nc2cccc(CN)c2Cl)n1 [Example 469] |  |
| 39.9 | 8 | 298 | Cc1ccnc(Nc2cccc(C3(N)CCC3)c2)c1 [Example 488] |  |
| 35.5 | 12 | 421 | COc1ccc([N+](=O)[O-])c(Nc2ccc(Cl)c(CN)c2)n1 [Example 466] |  |
| 31.2 | 32 | 1000 | COc1ccc([N+](=O)[O-])c(Nc2cccc(CN)c2OC)n1 [Example 465] |  |
| 29.8 | 20 | 586 | COc1ccc([N+](=O)[O-])c(Nc2cccc(CN)c2)c1 [Example 153] |  |
| 29.1 | 45 | 1290 | CCCOc1c(CN)cccc1Nc1cc(C)ccn1 [Example 506] |  |
| 25.9 | 28 | 713 | COc1c(CN)cccc1Nc1cc(C)ccn1 [Example 541] |  |
| 22.6 | 14 | 322 | COc1ccc([N+](=O)[O-])c(Nc2cccc(CN)c2)n1 [Example 18] | Selectivity iNOS/nNOS (nNOS [2]): 41; IC50 (iNOS [3]): 917 nM; Selectivity eNOS/iNOS (iNOS [3]): 0.14 |
| 20.8 | 19 | 403 | COc1ccc([N+](=O)[O-])c(Nc2cccc(CN)c2C)n1 [Example 458] |  |
| 19.7 | 20 | 398 | CCOc1c(Nc2cc(C)ccn2)ccc(C)c1CN [Example 522] |  |
| 19.6 | 14 | 275 | COc1ccc([N+](=O)[O-])c(Nc2ccc(F)c(CN)c2)n1 [Example 467] |  |
| 19.5 | 25 | 485 | CCOc1c(Nc2cc(C)ccn2)ccc(Cl)c1CN [Example 521] |  |
| 18.1 | 19 | 347 | CCOc1c(CN)cccc1Nc1cc(C)ccn1 [Example 490] |  |
| 16.4 | 16 | 257 | COc1ccc([N+](=O)[O-])c(Nc2cccc(C(C)(C)N)c2)n1 [Example 462] |  |
| 12.5 | 20 | 250 | Cc1ccnc(Nc2cccc(CN)c2OC(C)C)c1 [Example 543] |  |
